Bounds are passed on as bounds.

In the assay the test system is HIV. As to the kind of experiment: Assay for inhibition of HIV replication (spread assay): acute HIV infection of T-lymphoid cells. The format is cell-based. To be noted: Human immunodeficiency virus 1, 'less than about'. As to the method: Assays for the inhibition of acute HIV infection of T-lymphoid cells were conducted in accordance with Vacca, J. P. et al., Proc. Natl. Acad. Set USA 1994, 91: 4096. […] For example, the compounds of Examples 1 to 64 were tested in this assay and found to have IC95 values of less than about 10 micromolar.
Usually IC95 stands for the concentration needed for an effect of 95%. A low value points to greater potency. `CC1CCCN(CCN2CCCCC2)C(=O)c2c3c(c(O)c(=O)n21)C(=O)N(Cc1ccc(F)c(Cl)c1)CC3` (stereo not drawn) [Example 33, 11-(3-Chloro-4-fluorobenzyl)-9-hydroxy-2-(2-piperidinyl-1-ylethyl)-6-methyl-3,4,5,6,12,13-hexahydro-2H[1,4]diazocino[2,1-a]-2,6-naphthyridine-1,8,10(11H)-trione] came in with an IC95 of less than 10 µM.

`CC1(C)C(=O)N(CCCO)c2c3c(c(O)c(=O)n21)C(=O)N(Cc1ccc(F)c(Cl)c1)CC3` [Example 55, 8-(3-Chloro-4-fluorobenzyl)-6-hydroxy-1-(3-hydroxypropyl)-3,3-dimethyl-1,8,9,10-tetrahydroimidazo[2,1-a]-2,6-naphthyridine-2,5,7(3H)-trione] returned an IC95 of less than 10 µM.

`O=C1NCCn2c1c1c(c(O)c2=O)C(=O)N(Cc2ccc(F)c(Cl)c2)CC1` [Example 5, 9-(3-Chloro-4-fluorobenzyl)-7-hydroxy-3,4,10,11-tetrahydro-2H-pyrazino[2,1-a]-2,6-naphthyridine-1,6,8(9H)-trione] displayed an IC95 of less than 10 µM.

`O=C1OCCCCn2c1c1c(c(O)c2=O)C(=O)N(Cc2ccc(F)c(Cl)c2)CC1` [Example 61, 11-(3-Chloro-4-fluorobenzyl)-9-hydroxy-3,4,5,6,12,13-hexahydro-[1,4]oxazocino[3,4-a]-2,6-naphthyridine-1,8,10(11H)-trione] had an IC95 of less than 10 µM.

As for `CC(=O)NCCN1CCCCn2c(c3c(c(O)c2=O)C(=O)N(Cc2ccc(F)c(Cl)c2)CC3)C1=O` [Example 20, 11-(3-Chloro-4-fluorobenzyl)-9-hydroxy-2-[2-(acetylamino)ethyl]-3,4,5,6,12,13-hexahydro-2H[1,4]diazocino[2,1-a]-2,6-naphthyridine-1,8,10(11H)-trione], the IC95 is less than 10 µM.

In the case of `CC1C(=O)N(C)c2c3c(c(O)c(=O)n21)C(=O)N(Cc1ccc(F)c(Cl)c1)CC3` (stereo not drawn) [Example 8, 8-(3-Chloro-4-fluorobenzyl)-6-hydroxy-1,3-dimethyl-1,8,9,10-tetrahydroimidazo[2,1-a]-2,6-naphthyridine-2,5,7(3H)-trione], the 95% effect concentration (IC95) was less than 10 µM.

Regarding `CC1CCCN(CCN2CCCC2)C(=O)c2c3c(c(O)c(=O)n21)C(=O)N(Cc1ccc(F)c(Cl)c1)CC3` (stereo not drawn) [Example 34, 11-(3-Chloro-4-fluorobenzyl)-9-hydroxy-2-(2-pyrrolidinyl-1-ylethyl)-6-methyl-3,4,5,6,12,13-hexahydro-2H[1,4]diazocino[2,1-a]-2,6-naphthyridine-1,8,10(11H)-trione], the IC95 is less than 10 µM.

In the case of `CC(=O)OCCN1C(=O)C(C)(C)n2c1c1c(c(O)c2=O)C(=O)N(Cc2ccc(F)c(Cl)c2)CC1` [Example 57, 8(3-Chloro-4-fluorobenzyl)-6-hydroxy-1-(2-acetyloxyethyl)-3,3-dimethyl-1,8,9,10-tetrahydroimidazo[2,1-a]-2,6-naphthyridine-2,5,7(3H)-trione], the concentration for an effect of 95% (IC95) is less than 10 µM.

As for `CC1(C)C(=O)N(CC(N)=O)c2c3c(c(O)c(=O)n21)C(=O)N(Cc1ccc(F)c(Cl)c1)CC3` [Example 53, 2-[8-(3-Chloro-4-fluorobenzyl)-6-hydroxy-3,3-dimethyl-2,5,7-trioxo-2,3,7,8,9,10-hexahydroimidazo[2,1-a]-2,6-naphthyridin-1(5H)-yl]acetamide], the IC95 is less than 10 µM.

The molecule `CN1CCCCn2c(c3c(c(O)c2=O)C(=O)N(Cc2ccc(F)c(Cl)c2)CC3)C1=O` [Example 1, 11-(3-Chloro-4-fluorobenzyl)-9-hydroxy-2-methyl-3,4,5,6,12,13-hexahydro-2H[1,4]diazocino[2,1-a]-2,6-naphthyridine-1,8,10(11H)-trione] gave an IC95 of less than 10 µM.

Turning to `CN1CC(=O)CCn2c(c3c(c(O)c2=O)C(=O)N(Cc2ccc(F)c(Cl)c2)CC3)C1=O` [Example 25, 11-(3-Chloro-4-fluorobenzyl)-9-hydroxy-2-methyl-5,6,12,13-tetrahydro-2H[1,4]diazocino[2,1-a]-2,6-naphthyridine-1,4,8,10(3H, 11H)-tetrone], the IC95 was less than 10 µM.

Consider `O=C1c2c(c3n(c(=O)c2O)CCCCN(CCN2CCCCC2)C3=O)CCN1Cc1ccc(F)c(Cl)c1` [Example 18, 11-(3-Chloro-4-fluorobenzyl)-9-hydroxy-2-(2-piperidinyl-1-ylethyl)-3,4,5,6,12,13-hexahydro-2H[1,4]diazocino[2,1-a]-2,6-naphthyridine-1,8,10(11H)-trione], for which the IC95 was less than 10 µM.

Regarding `CC1(C)C(=O)N(CCO)c2c3c(c(O)c(=O)n21)C(=O)N(Cc1ccc(F)c(Cl)c1)CC3` [Example 54, 8-(3-Chloro-4-fluorobenzyl)-6-hydroxy-1-(2-hydroxyethyl)-3,3-dimethyl-1,8,9,10-tetrahydroimidazo[2,1-a]-2,6-naphthyridine-2,5,7(3H)-trione], the IC95 was less than 10 µM.

Consider `CN1CCn2c(c3c(c(O)c2=O)C(=O)N(Cc2ccc(F)c(Cl)c2)CC3)C1=O` [Example 6, 9-(3-Chloro-4-fluorobenzyl)-7-hydroxy-2-methyl-3,4,10,11-tetrahydro-2H-pyrazino[2,1-a]-2,6-naphthyridine-1,6,8(9H)-trione], for which the IC95 was less than 10 µM.

As to `O=C1OCCCn2c1c1c(c(O)c2=O)C(=O)N(Cc2ccc(F)c(Cl)c2)CC1` [Example 62, 10-(3-Chloro-4-fluorobenzyl)-8-hydroxy-4,5,11,12-tetrahydro-3H-[1,4]oxazepino[3,4-a]-2,6-naphthyridine-1,7,9(10H)-trione], the IC95 is less than 10 µM.

`O=C1c2c(c3n(c(=O)c2O)CCCCN(CCN2CCCC2)C3=O)CCN1Cc1ccc(F)c(Cl)c1` [Example 17, 11-(3-Chloro-4-fluorobenzyl)-9-hydroxy-2-(2-pyrrolidinyl-1-ylethyl)-3,4,5,6,12,13-hexahydro-2H[1,4]diazocino[2,1-a]-2,6-naphthyridine-1,8,10(11H)-trione] showed an IC95 of less than 10 µM.

In turn, `O=C1c2c(c3n(c(=O)c2O)CCCCN(CCN2CCOCC2)C3=O)CCN1Cc1ccc(F)c(Cl)c1` [Example 16, 11-(3-Chloro-4-fluorobenzyl)-9-hydroxy-2-(2-morpholin-4-ylethyl)-3,4,5,6,12,13-hexahydro-2H[1,4]diazocino[2,1a]-2,6-naphthyridine-1,8,10(11H)-trione] had an IC95 of less than 10 µM.

`CN1CC(N2CCCC2)CCn2c(c3c(c(O)c2=O)C(=O)N(Cc2ccc(F)c(Cl)c2)CC3)C1=O` (stereo not drawn) [Example 26, 11-(3-Chloro-4-fluorobenzyl)-9-hydroxy-2-methyl-4-pyrrolidin-1-yl-3,4,5,6,12,13-hexahydro-2H[1,4]diazocmo[2,1-a]-2,6-naphthyridine-1,8,10(11H)-trione] yielded an IC95 of less than 10 µM.

The molecule `CN1CCC[C@H](CO)n2c(c3c(c(O)c2=O)C(=O)N(Cc2ccc(F)cc2)CC3)C1=O` [Example 48, (6R) 11-(4-Fluorobenzyl)-9-hydroxy-6-(hydroxymethyl)-2-methyl-3,4,5,6,12,13-hexahydro-2H-[1,4]diazocino[2,1-a]2,6-naphthyridine-1,8,10(11H)-trione] displayed an IC95 of less than 10 µM.

`CN(C)C(=O)CN1CCCCn2c(c3c(c(O)c2=O)C(=O)N(Cc2ccc(F)c(Cl)c2)CC3)C1=O` [Example 13, 2-[11-(3-Chloro-4-fluorobenzyl)-9-hydroxy-1,8,10-trioxo-1,3,4,5,6,8,10,11,12,13-deca-hydro-2H-[1,4]diazocino[2,1-a]-2,6-naphthyridin-2-yl]-N,N-dimethylacetamide] gave an IC95 of less than 10 µM.

Molecule `CC1CCn2c(c3c(c(O)c2=O)C(=O)N(Cc2ccc(F)c(Cl)c2)CC3)C(=O)N(C)C1` (stereo not drawn) [Example 46, 11-(3-Chloro-4-fluorobenzyl)-9-hydroxy-2,4-dimethyl-3,4,5,6,12,13-hexahydro-2H[1,4]diazocino[2,1-a]-2,6-naphthyridine-1,8,10(11H)-trione] yielded an IC95 of less than 10 µM.

Molecule `NCCN1CCCCn2c(c3c(c(O)c2=O)C(=O)N(Cc2ccc(F)c(Cl)c2)CC3)C1=O` [Example 19, 11-(3-Chloro-4-fluorobenzyl)-9-hydroxy-2-(2-aminoethyl)-3,4,5,6,12,13-hexahydro-2H[1,4]diazocino[2,1-a]-2,6-naphthyridine-1,8,10(11H)-trione] displayed a 95% effect concentration (IC95) of less than 10 µM.

Turning to `NC(=O)CN1CCCCn2c(c3c(c(O)c2=O)C(=O)N(Cc2ccc(F)c(Cl)c2)CC3)C1=O` [Example 15, 2-[11-(3-Chloro-4-fluorobenzyl)-9-hydroxy-1,8,10-trioxo-1,3,4,5,6,8,10,11,12,13-deca-hydro-2H-[1,4]diazocino[2,1-a]-2,6-naphthyridin-2-yl]acetamide], the IC95 was less than 10 µM.

`O=C1OCCn2c1c1c(c(O)c2=O)C(=O)N(Cc2ccc(F)c(Cl)c2)CC1` [Example 7, 9-(3-Chloro-4-fluorobenzyl)-7-hydroxy-3,4,10,11-tetrahydro[1,4]oxazino[3,4-a]-2,6-naphthyridine-1,6,8(9H)-trione]: the IC95 was less than 10 µM.

`CN1CC(O)C(C)(C)Cn2c(c3c(c(O)c2=O)C(=O)N(Cc2ccc(F)c(Cl)c2)CC3)C1=O` (racemic) [Example 38, (4R/S)-11-(3-Chloro-4-fluorobenzyl)-4,9-dihydroxy-2,5,5-trimethyl-3,4,5,6,12,13-hexahydro-2H[1,4]diazocino[2,1-a]-2,6-naphthyridine-1,8,10(11H)-trione] showed an IC95 of less than 10 µM.

`CNC(=O)CN1C(=O)C(C)(C)n2c1c1c(c(O)c2=O)C(=O)N(Cc2ccc(F)c(Cl)c2)CC1` [Example 52, 2-[8-(3-Chloro-4-fluorobenzyl)-6-hydroxy-3,3-dimethyl-2,5,7-trioxo-2,3,7,8,9,10-hexahydroimidazo[2,1-a]-2,6-naphthyridin-1(5H)-yl]-N-methylacetamide] registered an IC95 of less than 10 µM.

For `CN1CCC[C@@H](CO)n2c(c3c(c(O)c2=O)C(=O)N(Cc2ccc(F)c(Cl)c2)CC3)C1=O` [Example 49, (6S)-11-(3-Chloro-4-fluorobenzyl)-9-hydroxy-6-(hydroxymethyl)-2-methyl-3,4,5,6,12,13-hexahydro-2H-[1,4]diazocino[2,1-a]-2,6-naphthyridine-1,8,10(11H)-trione], the IC95 is less than 10 µM.

The record behind these values is patent US8293731B2, “HIV integrase inhibitors” (Merck Sharp + Dohme Corp., priority 2005, dated 2012).
